We go through 33 molecules from patent US9518026B2, “5-aminopyrazole-4-carboxamide inhibitors of CDPK1 from T. gondii and C. parvum” (UNIVERSITY OF WASHINGTON THROUGH ITS CENTER FOR …, priority 2013, dated 2016).

One may read the IC50 as the midpoint of a concentration-inhibition curve. The term EC50 denotes the concentration at which the effect is half-maximal.

Data set [1] has as its target Src (Homo sapiens (Human), UniProt P12931). The data set can be described thus: biochemical.
Data set [2] in a line: Cytotoxicity against CRL8155 cell line. It counts as cell-based. To be noted: human, CRL8155 cells (lymphoblast, spleen), read-out: Cytotoxicity (CRL8155) EC50.
The target of data set [3] is CpCDPK1 (Cryptosporidium parvum (strain Iowa II), UniProt A3FQ16). Kind of data set: biochemical. As to conditions: Table 1; KinaseGlo, Syntide 2 peptide substrate; read-out: CpCDPK1 IC50. (In general: In Kinase-Glo more light means more ATP remaining.)
For data set [4], the target named is TgCDPK1 (Toxoplasma gondii, UniProt Q9BJF5). Kind of data set: biochemical. As to conditions: read-out: TgCDPK1 IC50.
The mark [5] stands for this setting: Table 1, KinaseGlo, Syntide 2 peptide substrate.

Read-outs that look alike come from different tables or passages of the source.

Sequence of Src (P12931 270-523): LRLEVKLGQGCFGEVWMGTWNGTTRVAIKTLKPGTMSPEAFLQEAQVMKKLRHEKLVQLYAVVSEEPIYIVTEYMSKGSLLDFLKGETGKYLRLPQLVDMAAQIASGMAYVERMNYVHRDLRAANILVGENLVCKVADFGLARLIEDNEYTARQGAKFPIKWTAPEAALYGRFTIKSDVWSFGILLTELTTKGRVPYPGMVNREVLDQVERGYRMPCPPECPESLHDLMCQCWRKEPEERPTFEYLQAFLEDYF
Sequence of TgCDPK1 (Q9BJF5 1-507): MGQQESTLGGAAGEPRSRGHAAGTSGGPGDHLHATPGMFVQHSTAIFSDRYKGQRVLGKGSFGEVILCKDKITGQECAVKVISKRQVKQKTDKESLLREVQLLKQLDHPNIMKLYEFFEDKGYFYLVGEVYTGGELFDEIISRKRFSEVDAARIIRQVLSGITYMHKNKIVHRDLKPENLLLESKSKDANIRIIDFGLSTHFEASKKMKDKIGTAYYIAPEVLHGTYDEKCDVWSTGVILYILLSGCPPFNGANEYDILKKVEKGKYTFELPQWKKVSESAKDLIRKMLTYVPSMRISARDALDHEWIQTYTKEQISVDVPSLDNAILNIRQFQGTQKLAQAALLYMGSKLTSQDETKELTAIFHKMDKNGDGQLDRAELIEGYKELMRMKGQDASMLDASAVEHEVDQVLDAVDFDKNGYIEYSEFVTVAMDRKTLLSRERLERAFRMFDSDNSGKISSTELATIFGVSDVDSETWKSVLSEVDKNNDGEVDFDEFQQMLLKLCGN
Sequence of CpCDPK1 (A3FQ16 1-538): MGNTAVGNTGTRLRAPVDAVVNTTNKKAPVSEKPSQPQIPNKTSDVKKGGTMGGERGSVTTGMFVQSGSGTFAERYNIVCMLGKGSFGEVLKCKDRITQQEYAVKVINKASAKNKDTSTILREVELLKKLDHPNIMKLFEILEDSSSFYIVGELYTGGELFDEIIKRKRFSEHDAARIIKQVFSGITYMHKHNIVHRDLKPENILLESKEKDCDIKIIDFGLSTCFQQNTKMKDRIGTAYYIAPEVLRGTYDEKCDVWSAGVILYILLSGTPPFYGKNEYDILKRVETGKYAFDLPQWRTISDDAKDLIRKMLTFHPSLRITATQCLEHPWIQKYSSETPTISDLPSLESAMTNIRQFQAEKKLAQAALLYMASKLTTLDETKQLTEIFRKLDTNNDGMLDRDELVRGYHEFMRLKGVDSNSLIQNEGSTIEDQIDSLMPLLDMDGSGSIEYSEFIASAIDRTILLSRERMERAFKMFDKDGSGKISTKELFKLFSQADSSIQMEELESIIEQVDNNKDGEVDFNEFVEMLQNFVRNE

Regarding `CCOc1ccc2cc(-c3nn(C(C)(C)C)c(N)c3C(N)=O)ccc2n1` [Compound 1597, 5-amino-1-(tert-butyl)-3-(2-ethoxyquinolin-6-yl)-1H-pyrazole-4-carboxamide], the IC50 was above 10 µM in data set [1] (Src IC50 (μM), Table 3) and 3 nM in data set [3]. Also, in data set [2] (Table 3), the EC50 was above 40000 nM.
Consider `CCOc1ccc2cc(-c3nn(CC(C)(C)CO)c(N)c3C(N)=O)ccc2n1` [Compound 1622, 5-amino-3-(2-ethoxyquinolin-6-yl)-1-(3-hydroxy-2,2-dimethylpropyl)-1H-pyrazole-4-carboxamide], for which, in data set [2] (Table 3), the EC50 is above 40000 nM.
Turning to `CC(C)(C)Cn1nc(-c2ccc3ccccc3c2)c(C(N)=O)c1N` [Compound 19, 5-amino-3-(naphthalen-2-yl)-1-neopentyl-1H-pyrazole-4-carboxamide], in data set [2] (Table 2), the EC50 was above 40000 nM.
For `CC(C)Oc1ccc2cc(-c3nn(C(C)(C)C)c(N)c3C(N)=O)cnc2c1` [Compound 1569, 5-amino-1-(tert-butyl)-3-(7-isopropoxyquinolin-3-yl)-1H-pyrazole-4-carboxamide], the EC50 in data set [2] (Table 3) is above 40000 nM. Besides, in data set [3], the IC50 came to 5 nM.
As for `CC(C)(C)n1nc(-c2cnc3cc(F)ccc3c2)c(C(N)=O)c1N` [Compound 1545, 5-amino-1-tert-butyl-3-(7-fluoroquinolin-3-yl)-1H-pyrazole-4-carboxamide], in data set [1] (Src IC50 (μM), Table 3), the IC50 is above 30 µM. In data set [2] (Table 3), the EC50 was above 40000 nM.
As to `CCOc1ccc2cc(-c3nn(CC4CC4)c(N)c3C(N)=O)cnc2c1` [Compound 1598, 5-amino-1-(cyclopropylmethyl)-3-(7-ethoxyquinolin-3-yl)-1H-pyrazole-4-carboxamide], the concentration for half-maximal inhibition (IC50) in data set [1] (Src IC50 (μM), Table 3) is above 10 µM; in data set [3] it was 5 nM; in data set [4] (setting [5]), 12 nM. For the same molecule, in data set [2] (Table 3), the EC50 is above 40000 nM.
In data set [1] (Src IC50 (μM), Table 3), `CCOc1ccc2cc(-c3nn(CC(C)(C)CO)c(N)c3C(N)=O)cnc2c1` [Compound 1596, 5-amino-3-(7-ethoxyquinolin-3-yl)-1-(3-hydroxy-2,2-dimethylpropyl)-1H-pyrazole-4-carboxamide] had an IC50 above 10 µM. Moreover, in data set [2] (Table 3), the EC50 is above 40000 nM.
`CCOc1ccc2cc(-c3nn(C4CCCC4)c(N)c3C(N)=O)cnc2c1` [Compound 1605, 5-amino-1-cyclopentyl-3-(7-ethoxyquinolin-3-yl)-1H-pyrazole-4-carboxamide]: the IC50 is above 10 µM in data set [1] (Src IC50 (μM), Table 3) and 4 nM in data set [3]. For the same molecule, the 50% effective concentration (EC50) in data set [2] (Table 3) was above 40000 nM.
In the same order, the values of `CCOc1ccc2cc(-c3nn(C4CCCCCC4)c(N)c3C(N)=O)cnc2c1` [Compound 1604, 5-amino-1-cycloheptyl-3-(7-ethoxyquinolin-3-yl)-1H-pyrazole-4-carboxamide] are above 10 µM, 2 nM and above 40000 nM.
As to `CCOc1ccc2cc(-c3nn(CCOC)c(N)c3C(=O)NCCOC)cnc2c1` [Compound 1595, 5-amino-3-(7-ethoxyquinolin-3-yl)-N,1-bis(2-methoxyethyl)-1H-pyrazole-4-carboxamide], the results for the IC50 in data set [3] and in data set [4] (setting [5]) were 398 nM and 723 nM, respectively.
With `NC(=O)c1c(-c2ccc3ccccc3c2)nn(CC2CCNCC2)c1N` [Compound 6, 5-amino-3-(naphthalen-2-yl)-1-(piperidin-4-ylmethyl)-1H-pyrazole-4-carboxamide], the IC50 in data set [3] stood at 64 nM; in data set [4], 35 nM.
With `CCOc1ccc2cc(-c3nn(C(C)C4CC4)c(N)c3C(N)=O)cnc2c1` (stereo not drawn) [Compound 1631, 5-amino-1-(1-cyclopropylethyl)-3-(7-ethoxyquinolin-3-yl)-1H-pyrazole-4-carboxamide], the IC50 was found to be 5 nM in data set [3] and 10 nM in data set [4] (setting [5]).
On to `CCOc1ccc2cc(-c3nn(CC(C)(C)O)c(N)c3C(N)=O)cnc2c1` [Compound 1641, 5-amino-3-(7-ethoxyquinolin-3-yl)-1-(2-hydroxy-2-methylpropyl)-1H-pyrazole-4-carboxamide], for which the results for the IC50 in data set [3] and in data set [4] (setting [5]) were 21 nM and 41 nM, respectively.
Regarding `NC(=O)c1c(-c2ccc3ccccc3c2)nn(CC2CC2)c1N` [Compound 15, 5-amino-1-(cyclopropylmethyl)-3-(naphthalen-2-yl)-1H-pyrazole-4-carboxamide], the IC50 is 10 nM in data set [3] and 7 nM in data set [4].
On the same counts, the results for `NC(=O)c1c(-c2ccc3ccccc3c2)nn(C2CCCCC2)c1N` [Compound 17, 5-amino-1-cyclohexyl-3-(naphthalen-2-yl)-1H-pyrazole-4-carboxamide] are 16 nM and 11 nM.
On the same counts, the results for `Cn1ncc2cc(-c3nn(C(C)(C)C)c(N)c3C(N)=O)ccc21` [Compound 30, 5-amino-1-(tert-butyl)-3-(1-methyl-1H-indazol-5-yl)-1H-pyrazole-4-carboxamide] are 150 nM and 32 nM.
In the case of `Cn1c(=O)[nH]c2cc(-c3nn(C(C)(C)C)c(N)c3C(N)=O)ccc21` [Compound 31, 5-amino-1-(tert-butyl)-3-(1-methyl-2-oxo-2,3-dihydro-1H-benzo[d]imidazol-5-yl)-1H-pyrazole-4-carboxamide], the results for the IC50 in data set [3] and in data set [4] (setting [5]) were above 3000 nM and 640 nM, respectively.
On the same counts, the results for `CCOc1ccc2cc(-c3nn(C(C)CO)c(N)c3C(N)=O)cnc2c1` (stereo not drawn) [Compound 1627, 5-amino-3-(7-ethoxyquinolin-3-yl)-1-(1-hydroxypropan-2-yl)-1H-pyrazole-4-carboxamide] are 9 nM and 20 nM.
Consider `CCOc1ccc2cc(-c3nn(C(CO)CO)c(N)c3C(N)=O)cnc2c1` [Compound 1629, 5-amino-1-(1,3-dihydroxypropan-2-yl)-3-(7-ethoxyquinolin-3-yl)-1H-pyrazole-4-carboxamide], for which the IC50 in data set [3] stood at 52 nM; in data set [4] (setting [5]) it was 120 nM.
As to `CCOc1ccc2cc(-c3nn(CCOC)c(N)c3C(N)=O)cnc2c1` [Compound 1594, 5-amino-3-(7-ethoxyquinolin-3-yl)-1-(2-methoxyethyl)-1H-pyrazole-4-carboxamide], the IC50 amounted to 172 nM in data set [3] and 321 nM in data set [4] (setting [5]).
Consider `CCOc1ccc2cc(-c3nn(C4CCC4)c(N)c3C(N)=O)cnc2c1` [Compound 1652], for which the IC50 in data set [1] was above 10 µM. Further, the EC50 in data set [2] (Table 3) was above 40000 nM.
`CCOc1ccc2cc(-c3nn(C(C)C(C)(C)O)c(N)c3C(N)=O)cnc2c1` (stereo not drawn) [Compound 1626, 5-amino-3-(7-ethoxyquinolin-3-yl)-1-(3-hydroxy-3-methylbutan-2-yl)-1H-pyrazole-4-carboxamide]: the IC50 in data set [3] was 13 nM; in data set [4] (setting [5]) it was 30 nM.
In the case of `CN1CCC(n2nc(-c3ccc4ccccc4c3)c(C(N)=O)c2N)CC1` [Compound 20, 5-amino-1-(1-methylpiperidin-4-yl)-3-(naphthalen-2-yl)-1H-pyrazole-4-carboxamide], the values for the IC50 in data set [3] and in data set [4] were 13 nM and 26 nM, respectively.
`CCOc1ccc2cc(-c3nn4c(c3C(N)=O)NC(=O)C4)cnc2c1` [Compound 1609, 6-(7-ethoxyquinolin-3-yl)-2-oxo-2,3-dihydro-1H-imidazo[1,2-b]pyrazole-7-carboxamide]: the IC50 stood at 577 nM in data set [3] and 1430 nM in data set [4] (setting [5]).
As for `CCOc1ccc2cc(-c3nn(C4CCOC4)c(N)c3C(N)=O)cnc2c1` (stereo not drawn) [Compound 1612, 5-amino-3-(7-ethoxyquinolin-3-yl)-1-(tetrahydrofuran-3-yl)-1H-pyrazole-4-carboxamide], the IC50 amounted to 3 nM in data set [3] and 10 nM in data set [4] (setting [5]).
`COc1ccc2cc(-c3n[nH]c(N)c3C(N)=O)ccc2c1` [Compound 11, 5-amino-3-(6-methoxynaphthalen-2-yl)-1H-pyrazole-4-carboxamide]: the IC50 is 48 nM in data set [3] and 81 nM in data set [4].
In the case of `COc1ccc2cc(-c3nn(CC4CCN(C)CC4)c(N)c3C(N)=O)ccc2c1` [Compound 10, 5-amino-3-(6-methoxynaphthalen-2-yl)-1-((1-methylpiperidin-4-yl)methyl)-1H-pyrazole-4-carboxamide], the IC50 was found to be 14 nM in data set [3] and 35 nM in data set [4] (setting [5]).
Regarding `NC(=O)c1c(-c2ccc3ccccc3c2)nn(CCO)c1N` [Compound 22, 5-amino-1-(2-hydroxyethyl)-3-(naphthalen-2-yl)-1H-pyrazole-4-carboxamide], the IC50 in data set [3] was determined as 21 nM; in data set [4], 15 nM.
As for `CCOc1ccc2cc(-c3nn(C(C)C(C)O)c(N)c3C(N)=O)cnc2c1` (stereo not drawn) [Compound 1611, 5-amino-3-(7-ethoxyquinolin-3-yl)-1-(3-hydroxybutan-2-yl)-1H-pyrazole-4-carboxamide], the IC50 came out at 6 nM in data set [3] and 19 nM in data set [4] (setting [5]).
Turning to `COCCOc1ccc2cc(-c3nn(C(C)(C)C)c(N)c3C(N)=O)cnc2c1` [Compound 1570, 5-amino-1-(tert-butyl)-3-(7-(2-methoxyethoxy)quinolin-3-yl)-1H-pyrazole-4-carboxamide], the IC50 in data set [3] amounted to 255 nM; in data set [4] (setting [5]) it was 258 nM.
On the same counts, the results for `CCOc1ccc2cc(-c3nn(C(C)C)c(N)c3C(N)=O)ccc2n1` [Compound 1661, 5-amino-3-(2-ethoxyquinolin-6-yl)-1-isopropyl-1H-pyrazole-4-carboxamide] are 2 nM and 5 nM.
Take `CN1CCC(Cn2nc(-c3ccc4ccccc4c3)c(C(N)=O)c2N)CC1` [Compound 21, 5-amino-1-((1-methylpiperidin-4-yl)methyl)-3-(naphthalen-2-yl)-1H-pyrazole-4-carboxamide]: the values for the IC50 in data set [3] and in data set [4] were 17 nM and 39 nM, respectively.
`NC(=O)c1c(-c2ccc3ccccc3c2)nn(CC2CCCCC2)c1N` [Compound 16, 5-amino-1-(cyclohexylmethyl)-3-(naphthalen-2-yl)-1H-pyrazole-4-carboxamide]: the results for the IC50 in data set [3] and in data set [4] were 150 nM and 59 nM, respectively.
